Assay results taken from patent publication US8957058B2, “Insecticidal pyrrolidin-yl-aryl-carboxamides” (Syngenta Participations AG, priority 2010, dated 2015).

Key:
Format in all cases: in vivo
[1] = test system: Tetranychus urticae (Two-Spotted Spider Mite); assay: Tetranychus urticae bean leaf disc spray test; details: for Control, Tetranychus urticae (Two-spotted spider mite): application rate 12 ppm; for % Control at 12.5 ppm, Tetranychus urticae / % Control at 200 ppm, Tetranychus urticae: enantiomer comparison, checked 8 days later
From the text: […] After drying, the leaf discs are infested with mite populations of mixed ages. 8 days later, discs are checked for egg mortality, larval mortality, and adult mortality. […] After drying, the leaf discs are infested with mite populations of mixed ages. 8 days later, discs are checked for egg mortality, larval mortality, and adult mortality.

[2] = test system: Heliothis virescens (Tobacco Budworm); assay: Heliothis virescens egg test on artificial diet; details: for % Control at 12.5 ppm, Heliothis virescens / % Control at 200 ppm, Heliothis virescens: enantiomer comparison, 4 days incubation
Description: Heliothis virescens (Tobacco Budworm): Eggs (0-24 h old) were placed in 24-well microtiter plate on artificial diet and treated with test solutions at an application rate of 200 ppm (concentration in well 18 ppm) by pipetting. After an incubation period of 4 days, samples were checked for egg mortality, larval mortality, and growth regulation. Heliothis virescens (Tobacco Budworm): Eggs (0-24 h old) were placed in 24-well microtiter plate on artificial diet and treated with test solutions at an application rate starting at 200 ppm (concentration in well 18 ppm) by pipetting. After an incubation period of 4 days, samples were checked for egg mortality, larval mortality, and growth regulation.

[3] = test system: Diabrotica balteata (Corn Root Worm); assay: Diabrotica balteata L2 larvae test on artificial diet; details: for Control, Diabrotica balteata (Corn root worm): application rate 12 ppm; for % Control at 12.5 ppm, Diabrotica balteata / % Control at 200 ppm, Diabrotica balteata: enantiomer comparison, 5 days incubation
Description: Diabrotica balteata (Corn Root Worm): A 24-well microtiter plate (MTP) with artificial diet was treated with test solutions at an application rate of 200 ppm (concentration in well […]) by pipetting. After drying, the MTP's were infested with L2 larvae (6-10 per well). After an incubation period of 5 days, samples were checked for larval mortality and growth regulation. Diabrotica balteata (Corn Root Worm): A 24-well microtiter plate (MTP) with artificial diet was treated with test solutions at an application rate of 12.5 ppm (concentration in well […]) by pipetting. After drying, the MTP's were infested with L2 larvae (6-10 per well). After an incubation period of 5 days, samples were checked for larval mortality and growth regulation.

[4] = test system: Thrips tabaci (Onion Thrips); assay: Thrips tabaci sunflower leaf disc spray test; details: enantiomer comparison, 7 days incubation
Description: Thrips tabaci (Onion Thrips): Sunflower leaf discs were placed on agar in a 24-well microtiter plate and sprayed with test solutions at an application rate of 200 ppm. After drying, the leaf discs were infested with a thrip population of mixed ages. After an incubation period of 7 days, samples were checked for mortality. Thrips tabaci (Onion Thrips): Sunflower leaf discs were placed on agar in a 24-well microtiter plate and sprayed with test solutions at an application rate of 50 ppm. After drying, the leaf discs were infested with a thrip population of mixed ages. After an incubation period of 7 days, samples were checked for mortality.

[5] = test system: Plutella xylostella (Diamond Back Moth); assay: Plutella xylostella L2 larvae test on artificial diet; details: enantiomer comparison, 6 days incubation
Description: […] After drying, the MTP's were infested with L2 larvae (7-12 per well). After an incubation period of 6 days, samples were checked for larval mortality and growth regulation. […] After drying, the MTPs were infested with L2 larvae (7-12 per well). After an incubation period of 6 days, samples were checked for larval mortality and growth regulation.

[6] = test system: Spodoptera littoralis (Egyptian Cotton Leaf Worm); assay: Spodoptera littoralis (systemic) test via salad grown on treated agar; details: 5 days after infestation
From the text: Spodoptera littoralis (Systemic) (Egyptian Cotton Leaf Worm) Test compounds were applied by pipette into 24 well plates and mixed with agar. Salad seeds were placed on the agar and the multi well plate is closed by another plate which contains also agar. After 7 days the roots have absorbed the compound and the salad has grown into the lid plate. The salad leafs were now cut off into the lid plate. Spodoptera eggs were pipette through a plastic stencil on a humid gel blotting paper and the plate closed with it. The samples are checked for mortality, repellent effect, feeding behavior, and growth regulation 5 days after infestation.

## Cc1cc(N2CCC(c3cc(Cl)cc(Cl)c3)(C(F)(F)F)C2)ccc1C(=O)NC1CS(=O)(=O)C1 (centres unmarked) [Compound A5]
[1]
  Control, Tetranychus urticae (Two-spotted spider mite): 100%
[2]; application rate 3 ppm
  Control, Heliothis virescens (Tobacco budworm): 80%
[3]
  Control, Diabrotica balteata (Corn root worm): 100%

## Cc1cc(N2CCC(c3cc(Cl)cc(Cl)c3)(C(F)(F)F)C2)ccc1C(=O)NC1C[S+]([O-])C1 (centres unmarked) [Compound A1]
[1]
  Control, Tetranychus urticae (Two-spotted spider mite): 100%
[2]; application rate 0.8 ppm
  Control, Heliothis virescens (Tobacco budworm): 100%
[3]
  Control, Diabrotica balteata (Corn root worm): 80%

## Cc1cc(N2CCC(c3cc(Cl)cc(Cl)c3)(C(F)(F)F)C2)ccc1C(=O)NC1CSC1 (centres unmarked) [Compound A4]
[1]
  Control, Tetranychus urticae (Two-spotted spider mite): 100%
[2]; application rate 3 ppm
  Control, Heliothis virescens (Tobacco budworm): 80%
[3]
  Control, Diabrotica balteata (Corn root worm): 100%

## Cc1cc(N2CCC(c3cc(Cl)cc(Cl)c3)(C(F)(F)F)C2)ccc1C(=O)NCc1ccccn1 (centres unmarked) [Compound 1-4 of WO08128711, reference compound]
[1]
  Control, Tetranychus urticae (Two-spotted spider mite): 0%
[2]; application rate 0.8 ppm
  Control, Heliothis virescens (Tobacco budworm): 0%
[2]; application rate 3 ppm
  Control, Heliothis virescens (Tobacco budworm): 50%
[3]
  Control, Diabrotica balteata (Corn root worm): 0%

## Cc1cc(N2CCC(c3cc(Cl)cc(Cl)c3)(C(F)(F)F)C2)ccc1C(=O)NC1CS(=O)(=O)C1 (single isomer, unassigned) [Compound A5a]
[4]
  % Control at 200 ppm, Thrips tabaci: 90%
[5]
  % Control at 12.5 ppm, Plutella xylostella: 100%
  % Control at 200 ppm, Plutella xylostella: 100%
[6]
  % Control at 12.5 ppm, Spodoptera littoralis: 100%
  % Control at 200 ppm, Spodoptera littoralis: 100%
[1]
  % Control at 12.5 ppm, Tetranychus urticae: 100%
  % Control at 200 ppm, Tetranychus urticae: 100%
[2]
  % Control at 12.5 ppm, Heliothis virescens: 100%
  % Control at 200 ppm, Heliothis virescens: 100%
[3]
  % Control at 12.5 ppm, Diabrotica balteata: 100%
  % Control at 200 ppm, Diabrotica balteata: 100%

## Cc1cc(N2CCC(c3cc(Cl)cc(Cl)c3)(C(F)(F)F)C2)ccc1C(=O)NC1CS(=O)(=O)C1 (single isomer, unassigned) [Compound A5b]
[4]
  % Control at 200 ppm, Thrips tabaci: 0%
[5]
  % Control at 12.5 ppm, Plutella xylostella: 0%
  % Control at 200 ppm, Plutella xylostella: 100%
[6]
  % Control at 12.5 ppm, Spodoptera littoralis: 0%
  % Control at 200 ppm, Spodoptera littoralis: 100%
[1]
  % Control at 12.5 ppm, Tetranychus urticae: 0%
  % Control at 200 ppm, Tetranychus urticae: 0%
[2]
  % Control at 12.5 ppm, Heliothis virescens: 0%
  % Control at 200 ppm, Heliothis virescens: 100%
[3]
  % Control at 12.5 ppm, Diabrotica balteata: 0%
  % Control at 200 ppm, Diabrotica balteata: 0%
